In US9476099B2 (TRUSTEES OF DARTMOUTH COLLEGE, priority 2012, dated 2016):

Tested on: gene promoters in NT2/D1-R1 control and DNMT3B knockdown cells
Assay: Genome-wide promoter methylation analysis, HumanMethylation27 BeadChip (Table 15)
Assay type: cell-based, human
Settings: sh-3b + 5aza
Description: DNA methylation analysis was performed in samples in triplicate using the […] […] assay with the HumanMethylation27 BeadChip ([…]) and the BeadChip was scanned on the BeadArray Reader ([…]), according to the manufacturer's instructions. Raw data was normalized and analyzed with Genome Studio software ([…]). The HumanMethylation27 BeadChip assays 27,578 CpGs covering more than 14,000 genes, mostly from promoter regions. […] Hierarchical clustering was performed as stated above. HumanMethylation27 BeadChip data and gene expression microarray data were submitted to NCBI GEO.

Q: What does the source list for Nc1ncn([C@H]2C[C@H](O)[C@@H](CO)O2)c(=O)n1 [5aza]?
A: SERPING1 cg12783776 promoter methylation Mean: 0.350; SFRS16 cg19317638 promoter methylation Mean: 0.369; SFXN3 cg04880063 promoter methylation Mean: 0.188; SH3BGRL2 cg03080985 promoter methylation Mean: 0.260; SHH cg25167838 promoter methylation Mean: 0.127; SKIP cg04072323 promoter methylation Mean: 0.310; SLC30A2 cg05674944 promoter methylation Mean: 0.337; SMCP cg09542291 promoter methylation Mean: 0.504; SNX9 cg26845300 promoter methylation Mean: 0.722; SOX17 cg21226224 promoter methylation Mean: 0.495; SPRR1B cg24884084 promoter methylation Mean: 0.334; SSH1 cg11747499 promoter methylation Mean: 0.292; SSTR1 cg27590397 promoter methylation Mean: 0.900; TAC1 cg07550362 promoter methylation Mean: 0.507; TADA3L cg09279263 promoter methylation Mean: 0.350; TERT cg02545192 promoter methylation Mean: 0.311; TNFSF10 cg16555388 promoter methylation Mean: 0.430; TNRC4 cg26093148 promoter methylation Mean: 0.661; TNRC15 cg07230446 promoter methylation Mean: 0.243; TRAF3 cg24165760 promoter methylation Mean: 0.797; TRIM2 cg12793610 promoter methylation Mean: 0.506; TRIM36 cg10693071 promoter methylation Mean: 0.545; TRPM3 cg20555507 promoter methylation Mean: 0.291; UNC5D cg00297600 promoter methylation Mean: 0.384; WDR13 cg25053301 promoter methylation Mean: 0.211; ZFHX1B cg15377518 promoter methylation Mean: 0.472; ZNF222 cg09757277 promoter methylation Mean: 0.355; cg07512517 promoter methylation Mean: 0.473; Mean promoter methylation, ABCA3 cg02331561 (DNMT3B knockdown cells): 0.145; Mean promoter methylation, ABLIM3 cg05026186 (DNMT3B knockdown cells): 0.240; Mean promoter methylation, ACTL6B cg08572611 (DNMT3B knockdown cells): 0.138; Mean promoter methylation, ANKRD46 cg23737055 (DNMT3B knockdown cells): 0.257; Mean promoter methylation, ARNT2 cg17788682 (DNMT3B knockdown cells): 0.139; Mean promoter methylation, B4GALNT3 cg05769161 (DNMT3B knockdown cells): 0.271; Mean promoter methylation, BTBD1 cg16958189 (DNMT3B knockdown cells): 0.259; Mean promoter methylation, C1RL cg22593785 (DNMT3B knockdown cells): 0.188; Mean promoter methylation, C10orf10 cg17186163 (DNMT3B knockdown cells): 0.237; Mean promoter methylation, C10orf72 cg02569613 (DNMT3B knockdown cells): 0.312; Mean promoter methylation, C12orf34 cg01335367 (DNMT3B knockdown cells): 0.420; Mean promoter methylation, C17orf40 cg18042079 (DNMT3B knockdown cells): 0.213; Mean promoter methylation, C19orf30 cg07456645 (DNMT3B knockdown cells): 0.254; Mean promoter methylation, C20orf29 cg09158909 (DNMT3B knockdown cells): 0.226; Mean promoter methylation, C22orf9 cg11221513 (DNMT3B knockdown cells): 0.229; Mean promoter methylation, CACNA1G cg18454685 (DNMT3B knockdown cells): 0.286; Mean promoter methylation, CAMKK2 cg01369981 (DNMT3B knockdown cells): 0.191; Mean promoter methylation, CART cg23300372 (DNMT3B knockdown cells): 0.160; Mean promoter methylation, CCKBR cg13346411 (DNMT3B knockdown cells): 0.197; Mean promoter methylation, CDC42EP1 cg13951472 (DNMT3B knockdown cells): 0.217; Mean promoter methylation, CDKN2A cg10895543 (DNMT3B knockdown cells): 0.168; Mean promoter methylation, CHST8 cg24739326 (DNMT3B knockdown cells): 0.319; Mean promoter methylation, CPSF1 cg20326853 (DNMT3B knockdown cells): 0.241; Mean promoter methylation, CSMD1 cg22619018 (DNMT3B knockdown cells): 0.201; Mean promoter methylation, DCTN3 cg22579849 (DNMT3B knockdown cells): 0.325; Mean promoter methylation, DDX42 cg05797656 (DNMT3B knockdown cells): 0.192; Mean promoter methylation, DGKD cg25506396 (DNMT3B knockdown cells): 0.202; Mean promoter methylation, DGKI cg06277657 (DNMT3B knockdown cells): 0.190; Mean promoter methylation, DKK2 cg01404615 (DNMT3B knockdown cells): 0.398; Mean promoter methylation, DUSP8 cg02271621 (DNMT3B knockdown cells): 0.135; Mean promoter methylation, EHD2 cg12603043 (DNMT3B knockdown cells): 0.176; Mean promoter methylation, ELK1 cg21860846 (DNMT3B knockdown cells): 0.181; Mean promoter methylation, EMP3 cg01795122 (DNMT3B knockdown cells): 0.127; Mean promoter methylation, EYA4 cg01805282 (DNMT3B knockdown cells): 0.174; Mean promoter methylation, FAM70B cg15350194 (DNMT3B knockdown cells): 0.222; Mean promoter methylation, FAM73B cg00729541 (DNMT3B knockdown cells): 0.213; Mean promoter methylation, FCHSD2 cg17114257 (DNMT3B knockdown cells): 0.179; Mean promoter methylation, FLJ20273 cg01704534 (DNMT3B knockdown cells): 0.222; Mean promoter methylation, FLJ20273 cg15967525 (DNMT3B knockdown cells): 0.362; Mean promoter methylation, FLJ42486 cg03734874 (DNMT3B knockdown cells): 0.287; Mean promoter methylation, GAB3 cg12938998 (DNMT3B knockdown cells): 0.235; Mean promoter methylation, GALR1 cg04534765 (DNMT3B knockdown cells): 0.176; Mean promoter methylation, GCN5L2 cg08434547 (DNMT3B knockdown cells): 0.249; Mean promoter methylation, GNAS cg00943909 (DNMT3B knockdown cells): 0.097; Mean promoter methylation, HBQ1 cg07703401 (DNMT3B knockdown cells): 0.220; Mean promoter methylation, HCN1 cg11285003 (DNMT3B knockdown cells): 0.202; Mean promoter methylation, HES6 cg24127874 (DNMT3B knockdown cells): 0.377; Mean promoter methylation, HEYL cg25462291 (DNMT3B knockdown cells): 0.218; Mean promoter methylation, HRH3 cg08186362 (DNMT3B knockdown cells): 0.297; Mean promoter methylation, ICAM1 cg22874046 (DNMT3B knockdown cells): 0.144; Mean promoter methylation, ID2 cg23525180 (DNMT3B knockdown cells): 0.201; Mean promoter methylation, IGFBP3 cg04796162 (DNMT3B knockdown cells): 0.230; Mean promoter methylation, KATNB1 cg15153383 (DNMT3B knockdown cells): 0.265; Mean promoter methylation, KCNAB1 cg23873703 (DNMT3B knockdown cells): 0.334; Mean promoter methylation, KCNC2 cg18573383 (DNMT3B knockdown cells): 0.159; Mean promoter methylation, KIAA1822 cg02867079 (DNMT3B knockdown cells): 0.345; Mean promoter methylation, KIAA1840 cg06121469 (DNMT3B knockdown cells): 0.191; Mean promoter methylation, KRTCAP2 cg11278262 (DNMT3B knockdown cells): 0.257; Mean promoter methylation, LGALS1 cg00292662 (DNMT3B knockdown cells): 0.230; Mean promoter methylation, LGR6 cg23578193 (DNMT3B knockdown cells): 0.187; Mean promoter methylation, LOX cg06508445 (DNMT3B knockdown cells): 0.101; Mean promoter methylation, MAP6D1 cg03705396 (DNMT3B knockdown cells): 0.201; Mean promoter methylation, MGC9850 cg21097640 (DNMT3B knockdown cells): 0.218; Mean promoter methylation, MRPL38 cg11653266 (DNMT3B knockdown cells): 0.155; Mean promoter methylation, MT cg14078309 (DNMT3B knockdown cells): 0.154; Mean promoter methylation, MYOD1 cg18555440 (DNMT3B knockdown cells): 0.321; Mean promoter methylation, OGG1 cg25415932 (DNMT3B knockdown cells): 0.240; Mean promoter methylation, OR10J1 cg25076881 (DNMT3B knockdown cells): 0.335; Mean promoter methylation, OSTbeta cg16029760 (DNMT3B knockdown cells): 0.144; Mean promoter methylation, PABPC4 cg12585282 (DNMT3B knockdown cells): 0.221; Mean promoter methylation, PDE8B cg18089852 (DNMT3B knockdown cells): 0.130; Mean promoter methylation, PHLDA2 cg01263716 (DNMT3B knockdown cells): 0.248; Mean promoter methylation, PHLDA2 cg04720330 (DNMT3B knockdown cells): 0.195; Mean promoter methylation, PIB5PA cg18053607 (DNMT3B knockdown cells): 0.247; Mean promoter methylation, PLOD1 cg23286660 (DNMT3B knockdown cells): 0.235; Mean promoter methylation, PPCDC cg11632617 (DNMT3B knockdown cells): 0.269; Mean promoter methylation, PRDM12 cg09191327 (DNMT3B knockdown cells): 0.240; Mean promoter methylation, PRMT8 cg23739862 (DNMT3B knockdown cells): 0.116; Mean promoter methylation, PTPRO cg19402885 (DNMT3B knockdown cells): 0.303; Mean promoter methylation, PTPRO cg27196745 (DNMT3B knockdown cells): 0.267; Mean promoter methylation, R3HDML cg17692403 (DNMT3B knockdown cells): 0.288; Mean promoter methylation, RAB37 cg12448933 (DNMT3B knockdown cells): 0.241; Mean promoter methylation, RASA4 cg05749161 (DNMT3B knockdown cells): 0.102; Mean promoter methylation, RASL11A cg06611744 (DNMT3B knockdown cells): 0.208; Mean promoter methylation, SCAMP3 cg01745448 (DNMT3B knockdown cells): 0.209; Mean promoter methylation, SCARA5 cg10171125 (DNMT3B knockdown cells): 0.239; Mean promoter methylation, SEC14L2 cg14452140 (DNMT3B knockdown cells): 0.337; Mean promoter methylation, SH3BGRL3 cg03100146 (DNMT3B knockdown cells): 0.341; Mean promoter methylation, SHH cg00577464 (DNMT3B knockdown cells): 0.212; Mean promoter methylation, SLC6A5 cg20632573 (DNMT3B knockdown cells): 0.192; Mean promoter methylation, SLC25A22 cg02973416 (DNMT3B knockdown cells): 0.318; Mean promoter methylation, SLC35C2 cg02413850 (DNMT3B knockdown cells): 0.155; Mean promoter methylation, SLIT1 cg07143898 (DNMT3B knockdown cells): 0.176; Mean promoter methylation, SORCS3 cg16787600 (DNMT3B knockdown cells): 0.384; Mean promoter methylation, SOX15 cg01029592 (DNMT3B knockdown cells): 0.171; Mean promoter methylation, SOX15 cg13098960 (DNMT3B knockdown cells): 0.261; Mean promoter methylation, SOX17 cg02919422 (DNMT3B knockdown cells): 0.329; Mean promoter methylation, STXBP3 cg11666924 (DNMT3B knockdown cells): 0.194; Mean promoter methylation, SUSD2 cg23349242 (DNMT3B knockdown cells): 0.329; Mean promoter methylation, TBXA2R cg09998229 (DNMT3B knockdown cells): 0.256; Mean promoter methylation, THAP3 cg11688219 (DNMT3B knockdown cells): 0.344; Mean promoter methylation, TMEM25 cg20001829 (DNMT3B knockdown cells): 0.238; Mean promoter methylation, TMEM106C cg25884854 (DNMT3B knockdown cells): 0.229; Mean promoter methylation, TRAPPC1 cg01667702 (DNMT3B knockdown cells): 0.231; Mean promoter methylation, UBA52 cg24356797 (DNMT3B knockdown cells): 0.145; Mean promoter methylation, UNQ2446 cg10574499 (DNMT3B knockdown cells): 0.218; Mean promoter methylation, VPREB1 cg18441959 (DNMT3B knockdown cells): 0.230; Mean promoter methylation, ZGPAT cg04078896 (DNMT3B knockdown cells): 0.191; Mean promoter methylation, ZGPAT cg18611245 (DNMT3B knockdown cells): 0.379; Mean promoter methylation, ZNF585B cg03751813 (DNMT3B knockdown cells): 0.182; Mean promoter methylation, ZNF702 cg07559730 (DNMT3B knockdown cells): 0.221
